Data on two molecules can be found in BindingDB's records for patent US9040518 (Glaxosmithkline, 2015).

The target of the experiment is T1, Ileal sodium/bile acid cotransporter (Homo sapiens, UniProt Q12908).
T1 sequence (Q12908 whole entry): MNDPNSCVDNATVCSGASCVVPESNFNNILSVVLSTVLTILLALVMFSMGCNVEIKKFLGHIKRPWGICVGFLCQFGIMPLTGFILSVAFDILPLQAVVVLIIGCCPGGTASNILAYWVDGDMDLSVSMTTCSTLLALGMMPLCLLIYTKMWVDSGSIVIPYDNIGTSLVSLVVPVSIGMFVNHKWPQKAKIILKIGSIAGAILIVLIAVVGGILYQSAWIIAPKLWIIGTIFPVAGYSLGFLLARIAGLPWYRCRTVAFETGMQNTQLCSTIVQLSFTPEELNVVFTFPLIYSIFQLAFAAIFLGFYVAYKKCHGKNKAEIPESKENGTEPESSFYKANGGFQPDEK
Kind of experiment: Inhibition Assay. The settings on record: 25 °C. The method, then:
On the day of the uptake experiment, 10 mM HEPES was added to Hank's Balanced Salt Solution, and the pH was adjusted to 7.4 with TRIS (HBSSH). The assay buffer was prepared by adding 100 uM [3H]-taurocholate and 10 uM cold taurocholate to room temperature HBSSH. A separate washing buffer was prepared by adding 10 uM cold taurocholate to HBSSH (30 ml per assay plate) and placed on ice. Using 100% DMSO, 8 point, 3-fold dilution curves for each test compound was prepared starting at 200 uM. […] Drug plates were created by adding 3 uL of each concentration to a v-bottom 96-well plate then diluted 60-fold with 177 uL of assay buffer. Plates were removed from the incubator and allowed to cool to ambient temperature.

As usually defined, the IC50 is the concentration that gives 50% inhibition. In turn, `CCCC[C@]1(CC)CS(=O)(=O)c2cc(CCCC(N)=O)c(OC)cc2[C@@H](c2ccccc2)N1` [US9040518, 24] had an IC50 of 0.073 µM.
Under `CCCC[C@]1(CC)CS(=O)(=O)c2cc(CN3CCC[C@H]3C(=O)O)c(OC)cc2[C@@H](c2ccccc2)N1` [US9040518, 63] stands 8.99 µM.
